Laboratory results: ChEMBL document CHEMBL1201862, “PubChem BioAssay data set” (2004)
Values belong to the compound of their own block, whether it stands above or below them. Activity calls are given as the source filed them.

What was measured:
[1] = biological target: T1, Neuropeptide Y receptor type 1 (Homo sapiens, UniProt P25929); assay type: functional;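 note: HEK293 cells with a CNG channel challenged with NPY then isoproterenol; potency as antagonist that reverses NPY suppression of cAMP signal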
T1 sequence (P25929 whole entry): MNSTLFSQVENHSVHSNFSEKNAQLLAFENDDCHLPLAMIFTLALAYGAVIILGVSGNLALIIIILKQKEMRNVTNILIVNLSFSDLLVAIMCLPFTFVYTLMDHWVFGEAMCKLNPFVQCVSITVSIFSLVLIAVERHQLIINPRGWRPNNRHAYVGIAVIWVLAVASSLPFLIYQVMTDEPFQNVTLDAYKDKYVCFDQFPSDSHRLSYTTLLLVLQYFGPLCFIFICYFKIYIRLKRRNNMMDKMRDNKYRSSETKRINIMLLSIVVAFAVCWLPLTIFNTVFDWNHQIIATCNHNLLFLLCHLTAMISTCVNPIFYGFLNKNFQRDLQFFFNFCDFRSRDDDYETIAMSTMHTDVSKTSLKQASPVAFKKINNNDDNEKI

[2] = biological target: T2, Heat shock factor protein 1 (Mus musculus, UniProt P38532); test: inhibition of MG132-induced HSE-luciferase signal, confirmation, cell-based, NIH3T3, luminescence, dose retest (AID 2382); assay type: functional;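 note: NIH3T3 fibroblasts with HSF1-driven luciferase reporter stressed by proteasome inhibitor MG132; luminescence from HSF1-driven luciferase expression after 8 hours of MG132 stress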
T2 sequence (P38532 whole entry): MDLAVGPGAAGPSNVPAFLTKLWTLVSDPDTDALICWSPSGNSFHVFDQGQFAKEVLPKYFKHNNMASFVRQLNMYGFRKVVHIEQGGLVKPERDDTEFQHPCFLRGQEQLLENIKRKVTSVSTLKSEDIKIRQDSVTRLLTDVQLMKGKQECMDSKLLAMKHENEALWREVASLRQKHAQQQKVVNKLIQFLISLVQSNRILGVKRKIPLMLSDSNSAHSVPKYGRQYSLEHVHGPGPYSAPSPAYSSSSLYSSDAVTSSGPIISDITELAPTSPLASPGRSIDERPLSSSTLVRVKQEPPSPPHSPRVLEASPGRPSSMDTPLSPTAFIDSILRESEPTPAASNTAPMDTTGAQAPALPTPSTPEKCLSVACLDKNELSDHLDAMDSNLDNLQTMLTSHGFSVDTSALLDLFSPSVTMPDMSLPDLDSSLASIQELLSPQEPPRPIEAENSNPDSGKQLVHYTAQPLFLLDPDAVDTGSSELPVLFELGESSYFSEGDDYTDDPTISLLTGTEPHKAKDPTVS

[3] = biological target: Glyceraldehyde-3-phosphate dehydrogenase (Homo sapiens, UniProt P04406)
Bcl-2-related protein A1 [4] = biological target: T3, Bcl-2-related protein A1 (Mus musculus, UniProt Q07440); test: Bfl-1 inhibitors blocking BH3 peptide binding, confirmation, biochemical, TR-FRET, mouse Bfl-1 (AID 621);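 note: TR-FRET binding of GST-Bfl-1 to FITC-labelled Bid peptide via terbium antibody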
T3 sequence (Q07440 whole entry): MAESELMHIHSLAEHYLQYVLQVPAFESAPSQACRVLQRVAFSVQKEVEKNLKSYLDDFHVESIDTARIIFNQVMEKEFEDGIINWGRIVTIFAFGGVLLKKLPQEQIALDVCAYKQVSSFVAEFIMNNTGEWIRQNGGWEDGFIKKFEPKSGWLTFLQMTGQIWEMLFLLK

Bcl-2-related protein A1 [5] = biological target: T3, Bcl-2-related protein A1; test: Bfl-1 binding inhibitors, SAR follow-up, biochemical, fluorescence polarization (AID 1070)
[6] = biological target: T4, Microphthalmia-associated transcription factor (Homo sapiens, UniProt O75030); test: TRPM1 promoter luciferase signal decrease, dose response, MITF inhibitor project, cell-based, SK-MEL-5, cherry-picked, set 3 (AID 493073); assay type: functional
T4 sequence (O75030 whole entry): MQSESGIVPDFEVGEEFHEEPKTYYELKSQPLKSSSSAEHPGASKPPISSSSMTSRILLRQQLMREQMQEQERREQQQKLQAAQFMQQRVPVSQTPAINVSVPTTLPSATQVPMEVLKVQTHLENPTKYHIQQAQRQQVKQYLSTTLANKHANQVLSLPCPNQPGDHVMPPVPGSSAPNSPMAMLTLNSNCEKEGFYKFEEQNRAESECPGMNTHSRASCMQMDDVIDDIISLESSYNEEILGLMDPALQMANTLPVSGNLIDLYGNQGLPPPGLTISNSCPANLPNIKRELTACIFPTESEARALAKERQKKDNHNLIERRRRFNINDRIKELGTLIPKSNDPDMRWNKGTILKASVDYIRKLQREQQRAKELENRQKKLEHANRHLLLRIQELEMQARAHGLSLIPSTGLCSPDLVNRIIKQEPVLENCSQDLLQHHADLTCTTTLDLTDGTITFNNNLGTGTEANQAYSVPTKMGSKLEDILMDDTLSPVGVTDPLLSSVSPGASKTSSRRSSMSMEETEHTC

[7] = biological target: Neurotensin receptor type 1 (Homo sapiens, UniProt P30989); assay type: functional;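 note: Image-based confirmatory dose-response assay measuring agonist activity at NTR1; NTR1-expressing U2OS osteosarcoma cells imaged for beta-arrestin GFP spot formation; agonist potency where compounds increase beta-arrestin recruitment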
NADPH oxidase 1 = NADPH oxidase 1 (Homo sapiens, UniProt Q9Y5S8); assay type: functional, cell-based;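 note: Cell-based assay with luminescence read-out, IC50 derived from inhibitor dose-response curves; intracellular ROS from endogenous NOX1 in intact HT29 colon cancer cells; potency of inhibitors that lower the ROS luminescence signal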
Estrogen receptor beta = Estrogen receptor beta (Homo sapiens, UniProt Q92731);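 note: recombinant ER-beta bound to coactivator SRC1 peptide in presence of estradiol agonist; inhibitors block coactivator peptide binding and lower the FRET signal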
[8] = biological target: T1, Neuropeptide Y receptor type 1; test: NPY-Y1 receptor antagonist potency, dose response, cell-based (AID 1277); assay type: functional
[9] = biological target: T5, Neuropeptide Y receptor type 2 (Homo sapiens, UniProt P49146); test: NPY-Y2 antagonist potency, selectivity check, dose response, counter-screen for NPY-Y1 antagonist project, cell-based (AID 1278); assay type: functional
T5 sequence (P49146 whole entry): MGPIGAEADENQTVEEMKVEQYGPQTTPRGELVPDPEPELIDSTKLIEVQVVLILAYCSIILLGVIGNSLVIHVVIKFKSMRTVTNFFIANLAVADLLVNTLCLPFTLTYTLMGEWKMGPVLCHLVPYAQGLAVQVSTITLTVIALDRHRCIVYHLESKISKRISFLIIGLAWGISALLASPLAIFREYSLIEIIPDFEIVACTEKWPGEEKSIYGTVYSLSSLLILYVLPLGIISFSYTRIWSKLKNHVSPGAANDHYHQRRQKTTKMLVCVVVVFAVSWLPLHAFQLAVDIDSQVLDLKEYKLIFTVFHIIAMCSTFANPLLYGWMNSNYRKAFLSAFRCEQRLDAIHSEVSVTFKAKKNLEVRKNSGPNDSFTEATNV

HT-1080 = test: cytotoxicity in HT1080 fibrosarcoma cells, cell-based, fluorescence readout (AID 620); assay type: functional; conditions: Homo sapiens
[10] = biological target: Luciferin 4-monooxygenase (Photinus pyralis, UniProt P08659); test: Counter Screen for Luciferase-based Assay Positives. [Related pubchem assays: 620, 618, 411 ]
[11] = biological target: Acyl-homoserine lactone acylase PvdQ (Pseudomonas aeruginosa (strain LESB58), UniProt Q9I194); test: P. aeruginosa PvdQ acylase inhibitors, dose response, biochemical, fluorescence, plate reader and imaging, cherry-picks (AID 493231)
[12] = inhibitors of Bluetongue virus cytopathic effect, confirmation, arbovirus, BSR cells (AID 1250); assay type: functional;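 note: protection from viral cytopathic effect measured as cell viability by ATP luminescence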
Estrogen receptor = biological target: T6, Estrogen receptor (Homo sapiens, UniProt P03372); test: potentiators of ERα–SRC-1 coactivator binding, dose response, biochemical, TR-FRET, ERα LBD (AID 737)
T6 sequence (P03372 whole entry): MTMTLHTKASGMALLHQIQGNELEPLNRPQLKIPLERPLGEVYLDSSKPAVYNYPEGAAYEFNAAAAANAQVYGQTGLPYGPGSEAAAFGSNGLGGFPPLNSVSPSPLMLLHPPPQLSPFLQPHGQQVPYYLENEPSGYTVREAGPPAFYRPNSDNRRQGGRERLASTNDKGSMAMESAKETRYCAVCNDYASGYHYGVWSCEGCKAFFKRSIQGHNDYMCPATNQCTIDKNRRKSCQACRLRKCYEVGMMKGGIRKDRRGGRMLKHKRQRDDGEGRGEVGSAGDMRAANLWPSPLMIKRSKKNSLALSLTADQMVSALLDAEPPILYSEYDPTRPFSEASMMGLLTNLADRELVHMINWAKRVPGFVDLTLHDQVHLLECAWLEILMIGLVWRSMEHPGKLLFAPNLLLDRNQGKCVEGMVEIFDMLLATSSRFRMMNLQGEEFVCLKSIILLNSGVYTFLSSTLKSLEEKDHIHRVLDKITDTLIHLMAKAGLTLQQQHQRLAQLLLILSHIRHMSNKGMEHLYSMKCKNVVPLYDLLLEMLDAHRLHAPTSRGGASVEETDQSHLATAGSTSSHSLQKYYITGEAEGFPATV

[13] = Jurkat T cell cytotoxicity, dose response, cytotoxicity control for P. falciparum gametocyte viability project, luminescence (AID 1117277); assay type: functional, cell-based;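 note: potency reflects loss of cellular ATP meaning fewer viable cells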
[14] = P. falciparum late gametocyte killing, dose response, luminescence (AID 1117278); assay type: functional, cell-based;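 note: gametocytes exposed to compound for 24 hours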
[15] = NIH-3T3 fibroblast cytotoxicity, dose response, cytotoxicity control, cell-based, fluorescence, Alamar Blue, secondary assay (AID 2327); assay type: functional;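 note: NIH-3T3 mouse fibroblasts cultured with fluconazole at 8 µg/mL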
INS1 = test: beta cell apoptosis inhibitors, cytokine rescue, dose response, luminescence, retest (AID 449756); assay type: functional, cell-based; conditions: Rattus norvegicus;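 note: cell death triggered by IL-1 beta plus TNF-alpha plus IFN-gamma mixture; protective hits raise ATP signal compared with cytokine alone wells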
[16] = cytotoxicity in HEK-293T cells, dose response, cytotoxicity control for BCR NF-kB inhibitor project, luminescence, B-cell screen hits (AID 489021); assay type: functional, cell-based;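 note: HEK-293T cells carrying an NF-kB luciferase reporter; cells exposed to compound for about 14 hours before viability readout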
[17] = C. albicans growth with fluconazole, confirmation, fluorescence, retest (AID 2467); assay type: functional, cell-based
[18] = Luminescence-based counterscreen assay for KLF5 inhibitors: dose response cell-based high throughput screening assay to identify cytotoxic compounds using the IEC-6 intestinal epithelial cell line. [Related pubchem assays: 1700 (Primary screen.), 1834 (Confirmation screen.), 1858 (Summary AID.), 1905 (Counterscreen.)]; assay type: functional
Streptococcus = test: Group A Streptococcus viability loss, dose response, counter-screen for streptokinase expression inhibitor project, luminescence, BacTiterGlo (AID 1915); assay type: functional, organism-based;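 note: potency for reduction of bacterial viability or growth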
[19] = test system: Streptococcus sp. 'group A'; test: growth inhibition of control SK(-) GAS strain, dose response, counter-screen for streptokinase expression inhibitor project, luminescence, kanamycin, BacTiterGlo, confirmation (AID 1900); assay type: functional, organism-based
X-box-binding protein 1 = X-box-binding protein 1 (Homo sapiens, UniProt P17861); assay type: functional, Cricetulus griseus;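 note: confirmatory dose-response counter-screen serving a CHOP assay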

Structure (SMILES): Cc1cccc(CSCCNC(=O)COc2ccc(Cl)cc2)c1
IC50 [1]: 13.3 µM (not active)
EC50 [2]: > 195 µM (not active)

Structure (SMILES): COc1cccc(N2CCN(C3=C(Cl)C(=O)N(c4ccc(Cl)c(Cl)c4)C3=O)CC2)c1
IC50 [3]: > 100 µM (not active)
IC50 (Bcl-2-related protein A1 [4]): 4.83 µM (active)
IC50 (Bcl-2-related protein A1 [5]): 1.26 µM (active)

Structure (SMILES): CCOC(=O)c1ccc(NC(=O)c2ccc(C)c(S(=O)(=O)N3CCOCC3)c2)cc1
AC50 [6]: 5.36 µM (active)
EC50 [7]: 17.3 µM (active)

Structure (SMILES): O=C1Nc2ccccc2C12OCCS2 (stereo unspecified)
IC50 (Estrogen receptor beta): > 50 µM (not active)

Structure (SMILES): COc1ccc(C(=O)Nc2ccc3c(c2)OCCO3)cc1
EC50 (HT-1080): > 50 µM (not active)
EC50 [10]: < 0.2 µM (active)

Structure (SMILES): Fc1ccc(CNCc2cccc(Br)c2)cc1
AC50 [11]: 30.2 µM (active)

Structure (SMILES): COc1ccc(S(=O)(=O)N2CCN(c3ccccc3OC)CC2)cc1OC
IC50 [12]: 23.3 µM (active)

Structure (SMILES): COC(=O)c1c(-c2ccncc2)csc1NC(=O)c1ccoc1C
EC50 (Estrogen receptor): 23.1 µM (active)
IC50 [13]: > 83.3 µM (inactive)
IC50 [14]: > 109 µM (inactive)

Structure (SMILES): Cc1ccc(-[n+]2c(-c3ccccc3)cn3c2CCc2ccccc2-3)c(C)c1
EC50 [15]: 96.9 µM (active)
IC50 [8]: 3.65 µM (active)
AC50 (INS1): 1.91 µM (active)
IC50 [16]: > 80 µM (inactive)
EC50 [17]: 1.24 µM (active)
IC50 [9]: 5.9 µM (active)

Structure (SMILES): COc1cccc(/C=N/NC(=O)c2cc3c(OC)ccc(OC)c3[nH]2)c1O
IC50 [18]: 16.3 µM (not active)
EC50 (Streptococcus): 3.31 µM (active)
EC50 [19]: 1.23 µM (active)
AC50 (INS1): 4.13 µM (active)

More lines, now with the values ahead:

IC50 (NADPH oxidase 1): > 17 µM (not active)
Structure (SMILES): FC(F)(F)Oc1ccc(/C=N/Nc2c(Cl)cncc2Cl)cc1

IC50 [3]: > 100 µM (not active)
IC50 (Bcl-2-related protein A1 [4]): 8.29 µM (active)
IC50 (Bcl-2-related protein A1 [5]): 15.9 µM (active)
Structure (SMILES): C[C@@H]1CN(C2=C(Cl)C(=O)N(c3ccc(Cl)c(Cl)c3)C2=O)[C@@H](C)CN1

IC50 [8]: 12.3 µM (not active)
IC50 [9]: > 35 µM (not active)
Structure (SMILES): CCC(C)(C(=O)NC1CCCCC1)N(Cc1ccco1)C(=O)Cc1cccs1 (stereo unspecified)

EC50 (Estrogen receptor): 12.9 µM (active)
Structure (SMILES): COc1ccc(-c2ccc(-c3noc(-c4cccs4)n3)c(OC)n2)cc1

IC50 (Estrogen receptor beta): > 50 µM (not active)
Structure (SMILES): CCCNc1nc(N2CCOCC2)nc(N2CCOCC2)n1

IC50 [12]: 24.7 µM (active)
Structure (SMILES): C=CCn1c(SCc2c(C)noc2C)nnc1C1COc2ccccc2O1 (stereo unspecified)

Absolute IC50 (XBP1) (X-box-binding protein 1): 10 µM
Structure (SMILES): CCCOc1ccc(N2C(=O)CC(SC(=NC)Nc3ccc(F)cc3)C2=O)cc1 (stereo unspecified)

IC50 (NADPH oxidase 1): > 17 µM (not active)
Structure (SMILES): O=[N+]([O-])c1cc(O/N=C/c2ccccc2)cc([N+](=O)[O-])c1
